Results published in the OligoGym collection.
Where “and” joins values, the source holds several entries; their conditions need not be identical. Equal entries are not always repeated. After the bases stand the sugars from the 5' end (letter, count) and the backbone: PS all phosphorothioate, else s phosphorothioate and o phosphodiester by linkage. Methylation of C is not given here. e = 2'-O-(2-methoxyethyl) (MOE); k = constrained ethyl (cEt); d = 2'-deoxy (DNA)

Biological target: SOD1
Conditions: ASO

Question: With “CAGTTTCTCACTACAGG (sugars e2 k2 d9 k2 e2, PS)” as the sequence, how does the target mRNA inhibition (HepG2, 5 µM) read?
Answer: 38%

Question: For “ATGGAATCCATGCAGGC (sugars e3 k2 d7 k2 e3, PS)”, which target mRNA inhibition (HepG2, 3 µM) is on record?
Answer: 9%

Question: With “TCATAATAAGTGCCATA (sugars e2 k2 d8 k2 e3, PS)” as the sequence, how does the target mRNA inhibition (HepG2, 5 µM) read?
Answer: 28%

Question: Which target mRNA inhibition (HepG2, 0.1875 µM) does the source give for “ATGTTTATTGGGCGATC (sugars e2 k2 d8 k2 e3, PS)” here?
Answer: 15%

Question: What about the target mRNA inhibition (HepG2, 0.75 µM) of the same sequence?
Answer: 36%

Question: What about the target mRNA inhibition (HepG2, 3 µM) of the same sequence?
Answer: 79%

Question: What about the target mRNA inhibition (HepG2, 4 µM) of the same sequence?
Answer: 76%

Question: What about the target mRNA inhibition (HepG2, 12 µM) of the same sequence?
Answer: 95%

Question: “CTGGTCCATTACTTTCCTTC (sugars e5 d10 e5, PS)” was tested. Which target mRNA inhibition (HepG2, 3 µM) did it give?
Answer: 50%

Question: For “TTAGTTTGAATTTGGAT (sugars e2 k2 d9 k2 e2, PS)”, which target mRNA inhibition (HepG2, 5 µM) is on record?
Answer: 16%

Question: Which target mRNA inhibition (HepG2, 0.1875 µM) does the source give for “CAGGATAACAGATGAGT (sugars e2 k2 d8 k2 e3, PS)” here?
Answer: 62%

Question: And the target mRNA inhibition (HepG2, 0.75 µM)?
Answer: 89%

Question: What about the target mRNA inhibition (HepG2, 3 µM) of the same sequence?
Answer: 95%

Question: What about the target mRNA inhibition (HepG2, 4 µM) of the same sequence?
Answer: 95%

Question: And the target mRNA inhibition (HepG2, 12 µM)?
Answer: 95%

Question: With “CAGTGTTTAATGTTTA (sugars ekddddddddekekee, linkages s1 o1 s8 o3 s2)” as the sequence, how does the target mRNA inhibition (A431, 0.12 µM) read?
Answer: 8%

Question: What about the target mRNA inhibition (A431, 0.6 µM) of the same sequence?
Answer: 26%

Question: What about the target mRNA inhibition (A431, 3 µM) of the same sequence?
Answer: 57%

Question: What about the target mRNA inhibition (A431, 15 µM) of the same sequence?
Answer: 76%

Question: And the target mRNA inhibition (HepG2, 0.222 µM)?
Answer: 54%

Question: And the target mRNA inhibition (HepG2, 0.667 µM)?
Answer: 79%

Question: What about the target mRNA inhibition (HepG2, 2 µM) of the same sequence?
Answer: 84%

Question: What about the target mRNA inhibition (HepG2, 6 µM) of the same sequence?
Answer: 88%

Question: Which target mRNA inhibition (HepG2, 4 µM) does the source give for “TTATTGGGCGATCCCAA (sugars e2 k2 d8 k2 e3, PS)” here?
Answer: 41%

Question: “CTCAGACTACATCCAAG (sugars e2 k2 d8 k2 e3, PS)” was tested. Which target mRNA inhibition (HepG2, 0.1875 µM) did it give?
Answer: 38%

Question: And the target mRNA inhibition (HepG2, 0.75 µM)?
Answer: 65%

Question: And the target mRNA inhibition (HepG2, 3 µM)?
Answer: 87%

Question: And the target mRNA inhibition (HepG2, 4 µM)?
Answer: 85% and 83%

Question: And the target mRNA inhibition (HepG2, 12 µM)?
Answer: 90% and 96%

Question: With “ATCTGTGATTTAAGTCT (sugars e2 k2 d9 k2 e2, PS)” as the sequence, how does the target mRNA inhibition (HepG2, 5 µM) read?
Answer: 37%

Question: With “GCTTGAATGACAAAGAA (sugars e2 k2 d8 k2 e3, PS)” as the sequence, how does the target mRNA inhibition (HepG2, 5 µM) read?
Answer: 24%

Question: Which target mRNA inhibition (HepG2, 5 µM) does the source give for “CCCATCTGTGATTTAAGTCT (sugars e5 d10 e5, PS)” here?
Answer: 41%

Question: How did the target mRNA inhibition (HepG2, 5 µM) turn out when “GTTTCTCACTACAGGTACTT (sugars e5 d10 e5, PS)” was run?
Answer: 30%

Question: With “TACAGGTACTTTAAAGC (sugars e2 k2 d8 k2 e3, PS)” as the sequence, how does the target mRNA inhibition (HepG2, 5 µM) read?
Answer: 23%

Question: Which target mRNA inhibition (HepG2, 5 µM) does the source give for “CTTTTTCATGGACCACCAGT (sugars e5 d10 e5, PS)” here?
Answer: 9%

Question: “AATAAGTGCCATACAGG (sugars e2 k2 d9 k2 e2, PS)” was tested. Which target mRNA inhibition (HepG2, 5 µM) did it give?
Answer: 36%

Question: “TTATTCACAGGCTTGAA (sugars e2 k2 d8 k2 e3, PS)” was tested. Which target mRNA inhibition (HepG2, 5 µM) did it give?
Answer: 26%

Question: Which target mRNA inhibition (HepG2, 3 µM) does the source give for “ATGCAGGCCTTCAGTCA (sugars e3 k2 d7 k2 e3, PS)” here?
Answer: 37%

Question: How did the target mRNA inhibition (HepG2, 5 µM) turn out when “GATTTAAGTCTGGCAAA (sugars e2 k2 d8 k2 e3, PS)” was run?
Answer: 19%

Question: For “TCCAAGTGATCATAAAT (sugars e2 k2 d8 k2 e3, PS)”, which target mRNA inhibition (HepG2, 5 µM) is on record?
Answer: 42%

Question: How did the target mRNA inhibition (HepG2, 5 µM) turn out when “GTGATCATAAATCAGTTTCT (sugars e5 d10 e5, PS)” was run?
Answer: 37%

Question: How did the target mRNA inhibition (HepG2, 4 µM) turn out when “GGGCCTCAGACTACATC (sugars e2 k2 d8 k2 e3, PS)” was run?
Answer: 55%

Question: What does the source list for “AGATTACAGTGTTTAAT (sugars e2 k2 d9 k2 e2, PS)”?
Answer: target mRNA inhibition (HepG2, 0.1875 µM): 28%; target mRNA inhibition (HepG2, 0.75 µM): 41%; target mRNA inhibition (HepG2, 3 µM): 63%; target mRNA inhibition (HepG2, 5 µM): 63%; target mRNA inhibition (HepG2, 12 µM): 71%

Question: With “CCCAATTACACCACAAG (sugars e2 k2 d8 k2 e3, PS)” as the sequence, how does the target mRNA inhibition (HepG2, 4 µM) read?
Answer: 63%

Question: How did the target mRNA inhibition (HepG2, 4 µM) turn out when “GATAACAGATGAGTTAA (sugars e2 k2 d8 k2 e3, PS)” was run?
Answer: 41%

Question: “ACAGGCTTGAATGACAAAGA (sugars e5 d10 e5, PS)” was tested. Which target mRNA inhibition (HepG2, 5 µM) did it give?
Answer: 19%

Question: How did the target mRNA inhibition (HepG2, 5 µM) turn out when “TCTTCCAAGTGATCATAAAT (sugars e5 d10 e5, PS)” was run?
Answer: 12%

Question: How did the target mRNA inhibition (HepG2, 4 µM) turn out when “CCAAGGGAATGTTTATT (sugars e2 k2 d8 k2 e3, PS)” was run?
Answer: 57%

Question: How did the target mRNA inhibition (HepG2, 5 µM) turn out when “GTCAGTCCTTTAATGCTTCC (sugars e5 d10 e5, PS)” was run?
Answer: 34%

Question: “GTTTCTCACTACAGGTA (sugars e2 k2 d8 k2 e3, PS)” was tested. Which target mRNA inhibition (HepG2, 5 µM) did it give?
Answer: 25%

Question: For “AGGTACTTTAAAGCAAC (sugars e2 k2 d9 k2 e2, PS)”, which target mRNA inhibition (HepG2, 5 µM) is on record?
Answer: 42%

Question: For “AGTTTCTCACTACAGGT (sugars e2 k2 d8 k2 e3, PS)”, which target mRNA inhibition (HepG2, 5 µM) is on record?
Answer: 33%

Question: With “CAAAGAAATTCTGACAAGTT (sugars e5 d10 e5, PS)” as the sequence, how does the target mRNA inhibition (HepG2, 5 µM) read?
Answer: 7%

Question: With “ACCAGTGTGCGGCCAATGAT (sugars e5 d10 e5, PS)” as the sequence, how does the target mRNA inhibition (HepG2, 5 µM) read?
Answer: 0%

Question: For “AGTGATCATAAATCAGT (sugars e2 k2 d8 k2 e3, PS)”, which target mRNA inhibition (HepG2, 5 µM) is on record?
Answer: 23%

Question: For “CAGAATCTTCAATAGACACA (sugars e5 d10 e5, PS)”, which target mRNA inhibition (HepG2, 5 µM) is on record?
Answer: 17% and 0%

Question: How did the target mRNA inhibition (HepG2, 5 µM) turn out when “GGCTTGAATGACAAAGA (sugars e2 k2 d8 k2 e3, PS)” was run?
Answer: 54%

Question: With “CAGTGTTTAATGTTTATC (sugars e5 d8 e5, linkages s1 o3 s9 o2 s2)” as the sequence, how does the target mRNA inhibition (A431, 0.12 µM) read?
Answer: 0%

Question: And the target mRNA inhibition (A431, 0.6 µM)?
Answer: 8%

Question: What about the target mRNA inhibition (A431, 3 µM) of the same sequence?
Answer: 39%

Question: And the target mRNA inhibition (A431, 15 µM)?
Answer: 52%

Question: What about the target mRNA inhibition (HepG2, 0.222 µM) of the same sequence?
Answer: 21%

Question: What about the target mRNA inhibition (HepG2, 0.667 µM) of the same sequence?
Answer: 47%

Question: What about the target mRNA inhibition (HepG2, 2 µM) of the same sequence?
Answer: 64%

Question: What about the target mRNA inhibition (HepG2, 6 µM) of the same sequence?
Answer: 84%
